Results published in patent US20190315711A1 (eXIthera Pharmaceuticals, Inc., priority 2016, published 2019).

Target: human Factor XIa (Homo sapiens, UniProt P03951)
Assay: Factor XIa enzyme inhibition assay (dose response, fluorogenic AMC substrate)
Type: biochemical
Parameters: Enzyme: Factor XIa
Details: purified enzyme; substrate 50 μM, enzyme 0.25 nM; read-out: hFXIa IC50
Protocol: • Assay buffer: 20 mM Hepes, pH 7.4; 150 mM NaCl; 0.02% Tween 20 • Compounds: 10 mM stocks in DMSO • Substrate: 20 mM Glp-Pro-Arg-AMC, 25 mg/2.3 mL H2O (store at +4° C.) [Factor XIa, thrombin, and trypsin] • 20 mM Pro-Phe-Arg-AMC (Bachem I-1295), 25 mg/2.2 mL H2O or Boc-Leu-Gly-Arg-AMC (Bachem I-1105), 25 mg/2.07 mL H2O (store at +4° C.) [Factor Xa] • Enzyme: Factor XIa; 0.25 M in 50% glycerol (20 μg/mL) • Trypsin; 0.2 μM in 50% glycerol (4.8 μg/mL) • Thrombin; 0.2 μM in 50% glycerol (7.34 μg/mL) • Factor Xa; 0.2 μM in 50% glycerol (9.2 μg/mL)
• 1. Dilute the substrate to 100 μM in assay buffer (30 μL/6 mL). The enzyme is diluted to 0.5 nM just prior to use (12 L/6 mL for Factor XIa; 15 μL/6 mL for all of the rest.) • 2. Pipette 50 μL of substrate into each well of the 96 well (12×8) microtiter plate. (Column 1 is used as the 100% activity control and receives no compound, and Column 12 is the blank and receives no enzyme.) Add an additional 46 μL to column 2. • 3. Pipette 4 μL of each compound into the appropriate well in column 2 of the plate (unknowns assayed in triplicate, standard assayed in duplicate). The final compound concentration will be 1/50th of the stock. • 4. Serially two-fold dilute the compound by mixing the sample in column 2, removing 50 μL to the next well (column 3), mix and remove to column 4, etc. until column 11. After mixing column 11, remove 50 μL and discard. • 5. Pipette 50 μL of buffer into column 12. Initiate the reaction by adding 50 μL of enzyme solution to each well of columns 1-11 as rapidly as possible. • 6. Read the plate in a spectrophotometer (SpectraMax) at 30° C., wherein each well is measured every 60 s for 30 min. For Factor Xa assays, each well is measured every 1 min for a total of 60 min. • 7. For Factor XIa assays, the compounds are assayed, in duplicate, at 3 different starting concentrations, 20, 2, and 0.2 μM; 1:10, 1:100, and 1:1000 dilution of 10 mM stock or at 2, 0.2, and 0.02 μM; 1:100, 1:1000, and 1:10,000 dilution of 10 mM stock. Data for each concentration are combined for graphing and data fitting. • 8. Data can be used both for estimation of IC50 and for estimation of Kon.
Potential inhibitors of Factor XIa were evaluated using the following assay.
PyroGlu-Pro-Arg-7-methylaminocourin (AMC), available from CPC Scientific, Inc., is based on the substrate pyro-Glu-Pro-Arg-pNA (S-2366), available from Diapharma Group, Inc. (Columbus, Ohio), wherein the p-nitroanaline group is replaced with 7-methylaminocoumarin (AMC).
The final concentration of the substrate in the assay was 50 μM, and the final concentration of the enzyme was 0.25 nM. Inhibitors were tested by serial dilution over an appropriate range to yield a dose response curve for determination of the inhibitors' IC50 value. The assay mixture was read every minute for 30 minutes in order to generate progress curves. The plates were read in a Spectramax m5 Multimode Plate Reader (Molecular Devices LLC, Sunnyvale, Calif.). Dose response curves were fit to Equation 1 below in which A is the maximum inhibition, B is the minimum inhibition, C is the IC50, and D is the Hill coefficient.
Y=[(A−B)/(1+(X/C)^D)]+B (Equation 1)

Sequence of human Factor XIa (P03951 388-625 limits assumed): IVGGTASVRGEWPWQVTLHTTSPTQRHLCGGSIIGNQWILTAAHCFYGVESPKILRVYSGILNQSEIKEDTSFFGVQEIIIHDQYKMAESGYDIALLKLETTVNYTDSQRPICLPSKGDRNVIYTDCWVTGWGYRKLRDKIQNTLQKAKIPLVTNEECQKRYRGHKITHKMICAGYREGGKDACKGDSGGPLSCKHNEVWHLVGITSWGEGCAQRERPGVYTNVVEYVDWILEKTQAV
Sequence of human Factor XIa (P03951 19-387 partner limits assumed): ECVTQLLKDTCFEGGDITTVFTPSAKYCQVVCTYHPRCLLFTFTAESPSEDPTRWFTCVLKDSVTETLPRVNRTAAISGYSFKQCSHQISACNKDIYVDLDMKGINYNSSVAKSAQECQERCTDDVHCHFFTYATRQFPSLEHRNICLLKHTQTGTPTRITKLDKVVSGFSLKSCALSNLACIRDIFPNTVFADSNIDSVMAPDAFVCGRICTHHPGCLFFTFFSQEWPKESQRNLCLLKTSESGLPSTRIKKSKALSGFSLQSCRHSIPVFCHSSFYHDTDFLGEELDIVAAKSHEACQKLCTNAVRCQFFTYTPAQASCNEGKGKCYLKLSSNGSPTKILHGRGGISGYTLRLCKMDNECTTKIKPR

SMILES	IC50 [µM]
CC[C@@H](NC(=O)N1C(=O)[C@H](Cc2ccnc(N)c2)[C@H]1C(=O)N(C)c1ccncc1)c1cccc(F)c1F [Compound 130]	0.01 to 0.1
CC[C@@H](NC(=O)N1C(=O)[C@H](Cc2cc(N)ncc2F)[C@H]1C(=O)N(C)c1ccncc1)c1cccc(Cl)c1 [Compound 131]	0.1 to 1
CC[C@@H](NC(=O)N1C(=O)[C@H](Cc2cc(C)nc(N)c2)[C@H]1C(=O)N(C)c1ccccc1)c1ccc(C)nc1 [Compound 132]	0.01 to 0.1
CC[C@@H](NC(=O)N1C(=O)[C@H](Cc2cc(C)nc(N)c2)[C@H]1C(=O)N(C)c1ccncc1)c1ccc(C)nc1 [Compound 133]	0.01 to 0.1
CN(C(=O)[C@@H]1[C@@H](Cc2ccnc(N)c2)C(=O)N1C(=O)NCc1cccc(Cl)c1)c1ccccc1 [Compound 137]	0.01 to 0.1
CC[C@@H](NC(=O)N1C(=O)[C@H](Cc2ccnc(N(C)C)c2)[C@H]1C(=O)N(C)c1ccncc1)c1ccccc1Cl [Compound 139]	0.1 to 1
CC[C@@H](NC(=O)N1C(=O)[C@H](Cc2ccnc(N(C)C)c2)[C@H]1C(=O)N(C)c1ccncc1)c1cccc(Cl)c1 [Compound 140]	0.1 to 1
Nc1cc(C[C@H]2C(=O)N(C(=O)N[C@@H](C3CCCCC3)C(F)(F)F)[C@@H]2C(=O)Nc2ccc(Cl)cc2)ccn1 [Example 9]	0.1 to 1
COc1cccc(N(C)C(=O)[C@@H]2[C@@H](Cc3ccnc(N)c3)C(=O)N2C(=O)N[C@@H](C2CCCCC2)C(F)(F)F)c1 [Example 12]	0.01 to 0.1

Second part, the molecule after the results:

IC50 [µM]	SMILES
< 0.01	CC[C@@H](NC(=O)N1C(=O)[C@H](Cc2cc(C)nc(N)c2)[C@H]1C(=O)N(C)c1ccncc1)C1CCCCC1 [Compound 114]
< 0.01	CC[C@@H](NC(=O)N1C(=O)[C@H](Cc2cc(C)nc(N)c2)[C@H]1C(=O)N(C)c1ccncc1)c1ccccc1 [Compound 122]
0.01 to 0.1	CC[C@@H](NC(=O)N1C(=O)[C@H](Cc2ccnc(N)c2)[C@H]1C(=O)N(C)c1cc(C)nc(C)c1)c1cccc(Cl)c1 [Compound 123]
< 0.01	CC[C@@H](NC(=O)N1C(=O)[C@H](Cc2ccnc(N)c2)[C@H]1C(=O)N(C)c1ccncc1)c1cccc(Cl)c1Cl [Compound 125]
< 0.01	CCc1cccc([C@@H](CC)NC(=O)N2C(=O)[C@H](Cc3ccnc(N)c3)[C@H]2C(=O)N(C)c2ccncc2)c1 [Compound 126]
< 0.01	CC[C@@H](NC(=O)N1C(=O)[C@H](Cc2ccnc(N)c2)[C@H]1C(=O)N(C)c1ccnc(C)c1)c1cccc(C)c1 [Compound 128]
0.01 to 0.1	CC[C@@H](NC(=O)N1C(=O)[C@H](Cc2ccnc(N)c2)[C@H]1C(=O)N(C)c1cc(C)nc(C)c1)c1cccc(C)c1 [Compound 129]
< 0.01	CC[C@@H](NC(=O)N1C(=O)[C@H](Cc2ccnc(N)c2)[C@H]1C(=O)N(C)c1ccccc1)c1ccc(C)nc1 [Compound 134]
< 0.01	CC[C@@H](NC(=O)N1C(=O)[C@H](Cc2ccnc(N)c2)[C@H]1C(=O)N(C)c1cccc(F)c1)c1ccc(C)nc1 [Compound 136]
< 0.01	CN(C(=O)[C@@H]1[C@@H](Cc2ccnc(N)c2)C(=O)N1C(=O)NCc1cccc(Cl)c1)c1ccncc1 [Compound 138]
